# Measurements from the kinase profiling compilation of Christmann-Franck et al. (2016).
# Columns and labels:
# Test in all cases: KINOMEscan competition binding
# Settings in all cases: compound 10.0 µM
# PIP4K2C (human) = PIP4K2C (human) (UniProt Q8TBX8)
# EPHB6 (human) = EPHB6 (human) (UniProt O15197)
# DDR1 (human) = DDR1 (human) (UniProt Q08345)
# TBK1 (human) = TBK1 (human) (UniProt Q9UHD2)
# MTOR (human) = MTOR (human) (UniProt P42345)
# [1] = system: EGFR (human), P00533 [L861Q]
# PIP5K1C (human) = PIP5K1C (human) (UniProt O60331)
# PRKCI (human) = PRKCI (human) (UniProt P41743)
# Chain of PRKCI (human) (P41743 whole entry, looked up): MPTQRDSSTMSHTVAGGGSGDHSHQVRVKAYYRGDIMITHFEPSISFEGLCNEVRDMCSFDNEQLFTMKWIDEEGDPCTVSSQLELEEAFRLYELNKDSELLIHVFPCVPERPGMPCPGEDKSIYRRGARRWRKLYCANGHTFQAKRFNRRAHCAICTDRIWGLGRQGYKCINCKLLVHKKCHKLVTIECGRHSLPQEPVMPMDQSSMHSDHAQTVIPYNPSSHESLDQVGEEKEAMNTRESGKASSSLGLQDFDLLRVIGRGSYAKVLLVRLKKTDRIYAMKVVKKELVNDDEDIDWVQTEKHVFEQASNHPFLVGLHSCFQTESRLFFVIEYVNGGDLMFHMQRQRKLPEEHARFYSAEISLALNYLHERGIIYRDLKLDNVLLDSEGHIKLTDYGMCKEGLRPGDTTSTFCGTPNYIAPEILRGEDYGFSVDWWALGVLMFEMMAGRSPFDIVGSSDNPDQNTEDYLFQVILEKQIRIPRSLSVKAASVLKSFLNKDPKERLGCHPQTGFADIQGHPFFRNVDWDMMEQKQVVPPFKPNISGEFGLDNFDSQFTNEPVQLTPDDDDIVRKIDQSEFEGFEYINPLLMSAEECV
# HUNK (human) = HUNK (human) (UniProt P57058)
# Chain of HUNK (human) (P57058 whole entry, looked up): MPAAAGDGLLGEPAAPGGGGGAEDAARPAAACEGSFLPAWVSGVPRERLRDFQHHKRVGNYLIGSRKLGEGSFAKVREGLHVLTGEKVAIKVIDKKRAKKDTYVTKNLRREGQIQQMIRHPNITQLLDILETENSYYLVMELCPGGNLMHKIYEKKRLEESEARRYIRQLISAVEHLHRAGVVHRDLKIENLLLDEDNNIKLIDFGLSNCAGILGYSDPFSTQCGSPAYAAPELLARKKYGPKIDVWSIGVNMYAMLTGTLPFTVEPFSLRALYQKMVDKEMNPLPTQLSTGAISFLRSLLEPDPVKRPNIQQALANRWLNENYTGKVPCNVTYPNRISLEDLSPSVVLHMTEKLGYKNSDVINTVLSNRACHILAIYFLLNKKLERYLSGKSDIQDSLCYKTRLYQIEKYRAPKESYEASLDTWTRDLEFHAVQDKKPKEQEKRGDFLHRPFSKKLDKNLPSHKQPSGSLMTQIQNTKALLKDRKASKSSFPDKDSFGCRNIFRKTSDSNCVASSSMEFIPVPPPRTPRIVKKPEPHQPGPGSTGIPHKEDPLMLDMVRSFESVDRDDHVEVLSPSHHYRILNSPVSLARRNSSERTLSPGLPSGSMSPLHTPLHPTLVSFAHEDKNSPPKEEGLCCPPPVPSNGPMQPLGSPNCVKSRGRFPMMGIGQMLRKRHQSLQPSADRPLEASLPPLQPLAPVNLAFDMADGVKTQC
# [2] = system: KIT (human), P10721 [V559D/T670I]
# SGK3 (human) = SGK3 (human) (UniProt Q96BR1)
# Chain of SGK3 (human) (Q96BR1 whole entry, looked up): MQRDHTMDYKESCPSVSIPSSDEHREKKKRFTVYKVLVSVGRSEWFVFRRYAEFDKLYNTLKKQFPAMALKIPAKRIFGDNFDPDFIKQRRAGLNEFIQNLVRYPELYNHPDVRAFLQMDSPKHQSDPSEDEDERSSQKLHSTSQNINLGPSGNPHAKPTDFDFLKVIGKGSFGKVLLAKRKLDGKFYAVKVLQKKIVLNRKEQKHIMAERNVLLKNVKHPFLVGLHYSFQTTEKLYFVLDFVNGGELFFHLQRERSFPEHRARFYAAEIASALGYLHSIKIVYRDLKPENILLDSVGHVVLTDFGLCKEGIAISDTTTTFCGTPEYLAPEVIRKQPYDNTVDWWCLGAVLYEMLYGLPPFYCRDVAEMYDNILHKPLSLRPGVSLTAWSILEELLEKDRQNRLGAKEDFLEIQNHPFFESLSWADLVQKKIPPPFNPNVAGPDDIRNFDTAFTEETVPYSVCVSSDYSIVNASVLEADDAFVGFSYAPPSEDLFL
# MET (human) = MET (human) (UniProt P08581)
# MAP3K15 (human) = MAP3K15 (human) (UniProt Q6ZN16)
# Chain of MAP3K15 (human) (Q6ZN16 whole entry, looked up): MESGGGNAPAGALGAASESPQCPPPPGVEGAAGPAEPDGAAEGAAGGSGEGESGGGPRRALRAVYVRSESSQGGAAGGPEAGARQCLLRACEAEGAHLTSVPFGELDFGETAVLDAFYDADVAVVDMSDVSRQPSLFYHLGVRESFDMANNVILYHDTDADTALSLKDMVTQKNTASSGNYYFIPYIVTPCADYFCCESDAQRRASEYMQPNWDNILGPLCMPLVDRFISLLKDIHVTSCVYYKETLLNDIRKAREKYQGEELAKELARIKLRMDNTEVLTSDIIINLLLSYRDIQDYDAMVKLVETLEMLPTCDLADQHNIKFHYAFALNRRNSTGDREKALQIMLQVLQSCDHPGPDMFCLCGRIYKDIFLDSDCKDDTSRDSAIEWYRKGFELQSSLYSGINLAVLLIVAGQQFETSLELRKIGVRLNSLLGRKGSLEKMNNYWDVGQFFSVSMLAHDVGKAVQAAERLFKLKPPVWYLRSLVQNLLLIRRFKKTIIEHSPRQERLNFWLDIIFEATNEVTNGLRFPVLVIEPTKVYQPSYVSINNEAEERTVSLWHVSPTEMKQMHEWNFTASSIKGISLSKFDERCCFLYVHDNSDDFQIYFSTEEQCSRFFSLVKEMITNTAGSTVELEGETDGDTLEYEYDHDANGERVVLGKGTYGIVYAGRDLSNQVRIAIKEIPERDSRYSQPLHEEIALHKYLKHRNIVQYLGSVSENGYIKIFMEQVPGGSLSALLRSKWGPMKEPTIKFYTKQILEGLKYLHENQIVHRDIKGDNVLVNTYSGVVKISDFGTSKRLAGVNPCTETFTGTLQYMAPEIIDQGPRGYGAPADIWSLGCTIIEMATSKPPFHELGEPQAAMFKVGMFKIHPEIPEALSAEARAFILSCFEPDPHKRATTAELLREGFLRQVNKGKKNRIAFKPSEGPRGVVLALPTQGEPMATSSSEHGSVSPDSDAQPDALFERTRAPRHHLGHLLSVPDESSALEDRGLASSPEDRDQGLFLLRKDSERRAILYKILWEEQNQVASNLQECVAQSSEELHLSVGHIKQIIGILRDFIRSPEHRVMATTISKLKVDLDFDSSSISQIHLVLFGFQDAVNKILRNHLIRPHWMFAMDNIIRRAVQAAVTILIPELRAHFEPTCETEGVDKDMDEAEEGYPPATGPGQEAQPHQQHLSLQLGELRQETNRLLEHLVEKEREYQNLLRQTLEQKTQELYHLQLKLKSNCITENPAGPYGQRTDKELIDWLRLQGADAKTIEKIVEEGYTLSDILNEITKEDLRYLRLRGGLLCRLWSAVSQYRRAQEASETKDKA
# BTK (human) = BTK (human) (UniProt Q06187)
# SNRK (human) = SNRK (human) (UniProt Q9NRH2)
# [3] = system: EGFR (human), P00533 [746-750 del]
# SBK1 (human) = SBK1 (human) (UniProt Q52WX2)
# CASK (human) = CASK (human) (UniProt O14936)
# VRK2 (human) = VRK2 (human) (UniProt Q86Y07)
# CPK1 (P.falciparum) = system: CPK1 (P.falciparum)
# DSTYK (human) = DSTYK (human) (UniProt Q6XUX3)
# CDK2 (human) = CDK2 (human) (UniProt P24941)
# CDK13 (human) = CDK13 (human) (UniProt Q14004)
# IRAK4 (human) = IRAK4 (human) (UniProt Q9NWZ3)
# SIK3 (human) = SIK3 (human) (UniProt Q9Y2K2)
# PRPF4B (human) = PRPF4B (human) (UniProt Q13523)
# PI4KB (human) = PI4KB (human) (UniProt Q9UBF8)
# MAP3K1 (human) = MAP3K1 (human) (UniProt Q13233)
# HIPK2 (human) = HIPK2 (human) (UniProt Q9H2X6)
# ERN1 (human) = ERN1 (human) (UniProt O75460)
# GRK7 (human) = GRK7 (human) (UniProt Q8WTQ7)
# CDKL3 (human) = CDKL3 (human) (UniProt Q8IVW4)
# Chain of CDKL3 (human) (Q8IVW4 whole entry, looked up): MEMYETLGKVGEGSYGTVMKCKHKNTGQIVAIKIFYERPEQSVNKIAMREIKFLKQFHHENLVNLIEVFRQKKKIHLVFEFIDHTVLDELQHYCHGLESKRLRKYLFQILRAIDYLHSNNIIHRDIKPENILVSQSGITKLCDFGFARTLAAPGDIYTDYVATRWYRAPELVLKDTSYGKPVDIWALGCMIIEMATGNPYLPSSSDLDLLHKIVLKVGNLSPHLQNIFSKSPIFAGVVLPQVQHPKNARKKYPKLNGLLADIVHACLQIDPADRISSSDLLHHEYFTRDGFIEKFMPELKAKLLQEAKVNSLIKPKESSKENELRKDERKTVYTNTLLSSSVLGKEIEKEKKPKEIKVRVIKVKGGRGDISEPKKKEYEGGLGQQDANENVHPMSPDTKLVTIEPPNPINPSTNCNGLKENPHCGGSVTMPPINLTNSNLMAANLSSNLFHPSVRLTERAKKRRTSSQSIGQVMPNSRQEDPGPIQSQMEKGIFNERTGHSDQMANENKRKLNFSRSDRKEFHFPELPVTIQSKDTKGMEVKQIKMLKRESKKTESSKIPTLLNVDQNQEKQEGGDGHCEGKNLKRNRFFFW
# MYLK3 (human) = MYLK3 (human) (UniProt Q32MK0)
# BRAF (human) = BRAF (human) (UniProt P15056)
# PIK3CA (human) = PIK3CA (human) (UniProt P42336)
# Chain of PIK3CA (human) (P42336 whole entry, looked up): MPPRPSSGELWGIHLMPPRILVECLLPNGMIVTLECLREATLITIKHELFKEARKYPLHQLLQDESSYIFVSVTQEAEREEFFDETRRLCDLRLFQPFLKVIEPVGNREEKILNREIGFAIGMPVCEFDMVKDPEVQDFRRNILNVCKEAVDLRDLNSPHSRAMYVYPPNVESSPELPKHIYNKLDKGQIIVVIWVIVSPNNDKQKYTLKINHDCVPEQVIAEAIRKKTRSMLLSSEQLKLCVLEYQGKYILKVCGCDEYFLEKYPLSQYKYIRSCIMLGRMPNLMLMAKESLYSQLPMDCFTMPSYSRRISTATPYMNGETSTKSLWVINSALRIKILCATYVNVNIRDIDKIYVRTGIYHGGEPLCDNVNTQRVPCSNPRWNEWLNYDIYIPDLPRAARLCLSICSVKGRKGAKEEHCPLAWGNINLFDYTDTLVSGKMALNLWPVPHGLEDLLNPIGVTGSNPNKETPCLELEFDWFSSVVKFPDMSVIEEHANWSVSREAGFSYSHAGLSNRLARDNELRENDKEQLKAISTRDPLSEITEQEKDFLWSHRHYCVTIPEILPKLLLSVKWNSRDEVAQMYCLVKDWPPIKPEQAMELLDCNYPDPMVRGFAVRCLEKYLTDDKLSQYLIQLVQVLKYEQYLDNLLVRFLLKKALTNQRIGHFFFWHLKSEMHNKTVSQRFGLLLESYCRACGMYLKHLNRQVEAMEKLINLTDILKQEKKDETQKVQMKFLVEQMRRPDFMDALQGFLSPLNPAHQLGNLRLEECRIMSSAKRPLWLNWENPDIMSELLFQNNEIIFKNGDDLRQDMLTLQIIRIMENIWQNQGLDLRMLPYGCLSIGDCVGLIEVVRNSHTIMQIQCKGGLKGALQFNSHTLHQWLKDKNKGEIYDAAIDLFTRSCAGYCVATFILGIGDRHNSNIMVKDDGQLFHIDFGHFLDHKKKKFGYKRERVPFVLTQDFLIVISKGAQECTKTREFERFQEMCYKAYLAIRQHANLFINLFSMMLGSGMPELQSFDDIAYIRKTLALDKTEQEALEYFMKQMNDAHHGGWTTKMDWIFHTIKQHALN
# [4] = system: PIK3CA (human), P42336 [H1047Y]
# [5] = system: PIK3CA (human), P42336 [E545A]
# [6] = system: PIK3CA (human), P42336 [E545K]
# [7] = system: PIK3CA (human), P42336 [C420R]
# [8] = system: PIK3CA (human), P42336 [Q546K]
smiles,measurement,setting,value
Cc1cc([C@@H](C)Nc2ccccc2C(=O)O)c2nc(N3CCOCC3)cc(=O)n2c1,"kinase still bound, per cent of control",PIP4K2C (human),58%
same,"kinase still bound, per cent of control",EPHB6 (human),41%
same,"kinase still bound, per cent of control",DDR1 (human),100%
same,"kinase still bound, per cent of control",TBK1 (human),100%
same,"kinase still bound, per cent of control",MTOR (human),11%
same,"kinase still bound, per cent of control",[1],100%
same,"kinase still bound, per cent of control",PIP5K1C (human),63%
same,"kinase still bound, per cent of control",PRKCI (human),100%
same,"kinase still bound, per cent of control",HUNK (human),81%
same,"kinase still bound, per cent of control",[2],91%
same,"kinase still bound, per cent of control",SGK3 (human),86%
same,"kinase still bound, per cent of control",MET (human),86%
same,"kinase still bound, per cent of control",MAP3K15 (human),87%
same,"kinase still bound, per cent of control",BTK (human),97%
same,"kinase still bound, per cent of control",SNRK (human),89%
same,"kinase still bound, per cent of control",[3],100%
same,"kinase still bound, per cent of control",SBK1 (human),100%
same,"kinase still bound, per cent of control",CASK (human),92%
same,"kinase still bound, per cent of control",VRK2 (human),100%
same,"kinase still bound, per cent of control",CPK1 (P.falciparum),62%
same,"kinase still bound, per cent of control",DSTYK (human),100%
same,"kinase still bound, per cent of control",CDK2 (human),93%
same,"kinase still bound, per cent of control",CDK13 (human),88%
same,"kinase still bound, per cent of control",IRAK4 (human),100%
same,"kinase still bound, per cent of control",SIK3 (human),95%
same,"kinase still bound, per cent of control",PRPF4B (human),71%
same,"kinase still bound, per cent of control",PI4KB (human),100%
same,"kinase still bound, per cent of control",MAP3K1 (human),90%
same,"kinase still bound, per cent of control",HIPK2 (human),79%
same,"kinase still bound, per cent of control",ERN1 (human),91%
same,"kinase still bound, per cent of control",GRK7 (human),57%
same,"kinase still bound, per cent of control",CDKL3 (human),90%
same,"kinase still bound, per cent of control",MYLK3 (human),100%
same,"kinase still bound, per cent of control",BRAF (human),100%
Cc1ccc2nc(NCCN)c3ncc(C)n3c2c1,"kinase still bound, per cent of control",PIP4K2C (human),100%
same,"kinase still bound, per cent of control",EPHB6 (human),44%
same,"kinase still bound, per cent of control",DDR1 (human),100%
same,"kinase still bound, per cent of control",TBK1 (human),100%
same,"kinase still bound, per cent of control",MTOR (human),87%
same,"kinase still bound, per cent of control",[1],100%
same,"kinase still bound, per cent of control",PIK3CA (human),100%
same,"kinase still bound, per cent of control",PIP5K1C (human),92%
same,"kinase still bound, per cent of control",PRKCI (human),88%
same,"kinase still bound, per cent of control",HUNK (human),100%
same,"kinase still bound, per cent of control",[2],39%
same,"kinase still bound, per cent of control",SGK3 (human),100%
same,"kinase still bound, per cent of control",MET (human),100%
same,"kinase still bound, per cent of control",MAP3K15 (human),100%
same,"kinase still bound, per cent of control",[4],26%
same,"kinase still bound, per cent of control",BTK (human),100%
same,"kinase still bound, per cent of control",[5],31%
same,"kinase still bound, per cent of control",SNRK (human),100%
same,"kinase still bound, per cent of control",[6],100%
same,"kinase still bound, per cent of control",[3],100%
same,"kinase still bound, per cent of control",SBK1 (human),100%
same,"kinase still bound, per cent of control",CASK (human),100%
same,"kinase still bound, per cent of control",VRK2 (human),100%
same,"kinase still bound, per cent of control",[7],52%
same,"kinase still bound, per cent of control",CPK1 (P.falciparum),52%
same,"kinase still bound, per cent of control",DSTYK (human),100%
same,"kinase still bound, per cent of control",[8],38%
same,"kinase still bound, per cent of control",CDK13 (human),4.7%
same,"kinase still bound, per cent of control",IRAK4 (human),100%
same,"kinase still bound, per cent of control",SIK3 (human),100%
same,"kinase still bound, per cent of control",PRPF4B (human),66%
same,"kinase still bound, per cent of control",PI4KB (human),100%
same,"kinase still bound, per cent of control",MAP3K1 (human),74%
same,"kinase still bound, per cent of control",HIPK2 (human),58%
same,"kinase still bound, per cent of control",ERN1 (human),88%
same,"kinase still bound, per cent of control",GRK7 (human),100%
same,"kinase still bound, per cent of control",CDKL3 (human),98%
same,"kinase still bound, per cent of control",BRAF (human),95%
O=C(O)c1ccc(Nc2ncc3c(n2)-c2ccc(Cl)cc2C(c2c(F)cccc2F)=NC3)cc1,"kinase still bound, per cent of control",PIP4K2C (human),26%
same,"kinase still bound, per cent of control",EPHB6 (human),41%
same,"kinase still bound, per cent of control",TBK1 (human),100%
same,"kinase still bound, per cent of control",MTOR (human),75%
same,"kinase still bound, per cent of control",PIK3CA (human),100%
same,"kinase still bound, per cent of control",PIP5K1C (human),49%
same,"kinase still bound, per cent of control",PRKCI (human),100%
same,"kinase still bound, per cent of control",HUNK (human),59%
same,"kinase still bound, per cent of control",SGK3 (human),100%
same,"kinase still bound, per cent of control",MET (human),49%
same,"kinase still bound, per cent of control",MAP3K15 (human),82%
same,"kinase still bound, per cent of control",[4],27%
same,"kinase still bound, per cent of control",BTK (human),28%
same,"kinase still bound, per cent of control",[5],20%
same,"kinase still bound, per cent of control",SNRK (human),74%
same,"kinase still bound, per cent of control",[6],100%
same,"kinase still bound, per cent of control",[3],28%
same,"kinase still bound, per cent of control",SBK1 (human),100%
same,"kinase still bound, per cent of control",CASK (human),91%
same,"kinase still bound, per cent of control",VRK2 (human),100%
same,"kinase still bound, per cent of control",[7],67%
same,"kinase still bound, per cent of control",CPK1 (P.falciparum),63%
same,"kinase still bound, per cent of control",DSTYK (human),100%
same,"kinase still bound, per cent of control",CDK2 (human),84%
same,"kinase still bound, per cent of control",[8],14%
same,"kinase still bound, per cent of control",CDK13 (human),100%
same,"kinase still bound, per cent of control",IRAK4 (human),100%
same,"kinase still bound, per cent of control",SIK3 (human),98%
same,"kinase still bound, per cent of control",PRPF4B (human),100%
same,"kinase still bound, per cent of control",PI4KB (human),100%
same,"kinase still bound, per cent of control",MAP3K1 (human),100%
same,"kinase still bound, per cent of control",HIPK2 (human),100%
same,"kinase still bound, per cent of control",ERN1 (human),100%
same,"kinase still bound, per cent of control",GRK7 (human),31%
same,"kinase still bound, per cent of control",CDKL3 (human),100%
same,"kinase still bound, per cent of control",MYLK3 (human),100%
same,"kinase still bound, per cent of control",BRAF (human),100%
CCOc1cc2ncc(C#N)c(Nc3ccc(OCc4ccccn4)c(Cl)c3)c2cc1NC(=O)/C=C/CN(C)C,"kinase still bound, per cent of control",PIP4K2C (human),100%
same,"kinase still bound, per cent of control",EPHB6 (human),83%
same,"kinase still bound, per cent of control",TBK1 (human),100%
same,"kinase still bound, per cent of control",MTOR (human),100%
same,"kinase still bound, per cent of control",PIK3CA (human),86%
same,"kinase still bound, per cent of control",PIP5K1C (human),100%
same,"kinase still bound, per cent of control",PRKCI (human),90%
same,"kinase still bound, per cent of control",HUNK (human),86%
same,"kinase still bound, per cent of control",SGK3 (human),100%
same,"kinase still bound, per cent of control",MET (human),84%
same,"kinase still bound, per cent of control",MAP3K15 (human),100%
same,"kinase still bound, per cent of control",BTK (human),4.4%
same,"kinase still bound, per cent of control",[5],100%
same,"kinase still bound, per cent of control",SNRK (human),51%
same,"kinase still bound, per cent of control",SBK1 (human),100%
same,"kinase still bound, per cent of control",CASK (human),100%
same,"kinase still bound, per cent of control",VRK2 (human),67%
same,"kinase still bound, per cent of control",CPK1 (P.falciparum),88%
same,"kinase still bound, per cent of control",DSTYK (human),69%
same,"kinase still bound, per cent of control",[8],100%
same,"kinase still bound, per cent of control",CDK13 (human),100%
same,"kinase still bound, per cent of control",IRAK4 (human),96%
same,"kinase still bound, per cent of control",SIK3 (human),73%
same,"kinase still bound, per cent of control",PRPF4B (human),92%
same,"kinase still bound, per cent of control",PI4KB (human),100%
same,"kinase still bound, per cent of control",MAP3K1 (human),96%
same,"kinase still bound, per cent of control",HIPK2 (human),65%
same,"kinase still bound, per cent of control",ERN1 (human),80%
same,"kinase still bound, per cent of control",GRK7 (human),100%
same,"kinase still bound, per cent of control",CDKL3 (human),100%
same,"kinase still bound, per cent of control",MYLK3 (human),86%
same,"kinase still bound, per cent of control",BRAF (human),95%
